What follows are molecules tested against T1, WT/R232 STING protein (Homo sapiens, UniProt Q86WV6, H232R) (assay: Luciferase reporter assay in HEK293T-hSTING-Luciferase cells, WT/R232). Conditions: 20 hr stimulation, read-out: R232 Activity (EC50 range).
T1 construct: host or cells: HEK293T
Assay type: cell-based
Description: • a) Stable STING expressing cells—Stable HEK293T STING-expressing cell lines were generated using plasmids purchased from Invivogen, Calif., USA, that contain STING cDNA cloned into the pUNO-1 vector under hEF1-HTLV promoter and containing the Blasticidin selection cassette. The plasmids hSTING(R232), hSTING(H232), hSTING(HAQ) were directly procured from Invivogen while hSTING (AQ) and hSTING (Q) were derived from hSTING(HAQ) and hSTING (R232) plasmids respectively by using a PCR based site directed mutagenesis method. These vectors were individually transfected into HEK293T cells using Lipofectamine (Invitrogen) and transfected cells were selected under Blasticidin selection. These transfected cells were further subjected to clonal selection using the limiting dilution method to obtain clonally pure populations of HEK cells transfected with each of the above mentioned human STING variants. Only those clones were selected in which ligand independent activation of STING was minimal. • b) Stable Luciferase reporter gene expressing cells—Stable HEK293T Luciferase reporter gene expressing cell lines were generated using pCDNA4 plasmids under an IRF-inducible promoter. This promoter is comprised of five tandem interferon-stimulated response elements (ISRE) fused to an ISG54 minimal promoter. This vector was transfected into HEK293T cells using Lipofectamine (Invitrogen) and transfected cells were selected under Zeocin selection. These transfected cells were further subjected to clonal selection using the limiting dilution method to obtain clonally pure populations of HEK cells transfected the Luciferase reporter construct. Only those clones were selected in which ligand independent induction of luciferase was minimal.
5×10^5 clonally selected HEK293T-hSTING-Luciferase cells were seeded in 384-well plates in growth medium and stimulated with novel compounds. After 20 hr of stimulation supernatant were removed and secretary reporter gene activity were measured using the Quanti-Luc detection system (Invivogen) on a Spectramax i3X luminometer.
All compounds were first tested in a primary screen using WT/R232 STING protein to obtain a ‘fold-induction’ over baseline levels of protein activity.

T1 sequence (Q86WV6 whole entry H232R): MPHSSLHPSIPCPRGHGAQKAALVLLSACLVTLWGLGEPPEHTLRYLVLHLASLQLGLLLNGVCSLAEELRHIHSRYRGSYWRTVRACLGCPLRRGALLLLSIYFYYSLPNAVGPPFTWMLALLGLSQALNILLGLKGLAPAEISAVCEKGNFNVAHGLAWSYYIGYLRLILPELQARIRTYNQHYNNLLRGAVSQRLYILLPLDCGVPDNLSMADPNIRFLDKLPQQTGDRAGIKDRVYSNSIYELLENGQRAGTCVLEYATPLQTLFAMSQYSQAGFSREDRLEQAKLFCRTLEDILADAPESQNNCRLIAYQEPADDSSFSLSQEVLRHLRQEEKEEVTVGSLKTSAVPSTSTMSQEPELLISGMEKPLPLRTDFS

EC50 | SMILES
> 10 µM | O=C(NCc1ccco1)c1ccc2c(c1)N(Cc1ccccc1Cl)C(=O)CS2 [Example 1, 4-(2-chlorobenzyl)-N-(furan-2-ylmethyl)-3-oxo-3,4-dihydro-2H-benzo[b-1,4]thiazine-6-carboxamide]
> 10 µM | O=C(CN1C(=O)CSc2ccc(C(=O)NCc3ccco3)cc21)c1ccccc1 [Example 2, N-(furan-2-ylmethyl)-3-oxo-4-(2-oxo-2-phenylethyl)-3,4-dihydro-2H-benzo[b][1,4] thiazine-6-carboxamide]
> 10 µM | O=C(NCc1ccco1)c1ccc2c(c1)N(CC(=O)N1CCc3ccccc31)C(=O)CS2 [Example 3, N-(furan-2-ylmethyl)-4-(2-(indolin-1-yl)-2-oxoethyl)-3-oxo-3,4-dihyrdo-2H-benzo[b-1,4]thiazine-6-carboxamide]
> 10 µM | O=C(CN1C(=O)CSc2ccc(C(=O)NCc3ccco3)cc21)Nc1ccncc1 [Example 4, N-(furan-2-ylmethyl)-3-oxo-4-(2-oxo-2-(pyridin-4-ylamino)ethyl)-3,4-dihydro-2H-benzo[b-1,4]-thiazine-6-carboxamide]
> 10 µM | O=C(CN1C(=O)CSc2ccc(C(=O)NCc3ccco3)cc21)Nc1ccccc1 [Example 5, N-(furan-2-ylmethyl)-3-oxo-4-(2-oxo-2-(phenylamino)ethyl)-3,4-dihydro-2H-benzo[b-1,4]thiazine-6-carboxamide]
> 10 µM | O=C(NCc1ccco1)c1ccc2c(c1)N(Cc1nc3ccccc3s1)C(=O)CS2 [Example 6, 4-(benzo[d]thiazol-2-ylmethyl)-N-(furan-2-ylmethyl)-3-oxo-3,4-dihydro-2H-benzo[b-1,4]thiazine-6-carboxamide]
> 10 µM | O=C(NCc1ccco1)c1ccc2c(c1)N(Cc1nc3ccccc3o1)C(=O)CS2 [Example 7]
> 10 µM | O=C(NCc1ccco1)c1ccc2c(c1)N(CCc1ccccc1)C(=O)CS2 [Example 8, N-(furan-2-ylmethyl)-3-oxo-4-phenethyl-3,4-dihydro-2H-benzo[b-1,4]thiazine-6-carboxamide]
> 10 µM | Nc1ncc(NC(=O)CN2C(=O)CSc3ccc(C(=O)NCc4ccco4)cc32)cn1 [Example 9, 4-(2-((2-amino-pyrimidin-5-yl)amino)-2-oxoethyl)-N-(furan-2-ylmethyl)-3-oxo-3,4-dihydro-2H-benzo[b-1,4]thiazine-6-carboxamide]
> 10 µM | Cn1cccc1CNC(=O)c1ccc2c(c1)N(Cc1ccccc1)C(=O)CS2 [Example 10, 4-benzyl-N-((1-methyl-1H-pyrrol-2-yl)methyl)-3-oxo-3,4-dihydro-2H-benzo[b-1,4]thiazine-6-carboxamide]
1 to 10 µM | O=C(NCc1ccco1)c1ccc2c(c1)N(Cc1cccc(Cl)c1Cl)C(=O)CS2 [Example 11, 4-(2,3-dichloro-benzyl)-N-(furan-2-ylmethyl)-3-oxo-3,4-dihydro-2H-benzo[b-1,4]thiazine-6-carboxamide]
1 to 10 µM | Cc1cccc(CN2C(=O)CSc3ccc(C(=O)NCc4ccco4)cc32)c1C [Example 12, 4-(2,3-dimethyl-benzyl)-N-(furan-2-ylmethyl)-3-oxo-3,4-dihydro-2H-benzo[b-1,4]thiazine-6-caroxamide]
1 to 10 µM | Cc1cccc(C)c1CN1C(=O)CSc2ccc(C(=O)NCc3ccco3)cc21 [Example 13, 4-(2,6-dimethyl-benzyl)-N-(furan-2-ylmethyl)-3-oxo-3,4-dihydro-2H-benzo[b-1,4]thiazine-6-carboxamide]
1 to 10 µM | O=C(NCc1ccco1)c1ccc2c(c1)N(Cc1cccc3ccccc13)C(=O)CS2 [Example 14, N-(furan-2-ylmethyl)-4-(naphthalen-1-ylmethyl)-3-oxo-3,4-dihydro-2H-benzo[b-1,4]thiazine-6-carboxamide]
> 10 µM | O=C(NCc1ccco1)c1ccc2c(c1)N(CC1CCCCC1)C(=O)CS2 [Example 15, 4-(cyclohexyl-methyl)-N-(furan-2-ylmethyl)-3-oxo-3,4-dihydro-2H-benzo[b-1,4]thiazine-6-carboxamide]
1 to 10 µM | O=C(NCC1CCCCC1)c1ccc2c(c1)N(Cc1ccccc1F)C(=O)CS2 [Example 16, N-(cyclo-hexylmethyl)-4-(2-fluoro-benzyl)-3-oxo-3,4-dihydro-2H-benzo[b-1,4]thiazine-6-carboxamide]

EC50 | SMILES
> 10 µM | O=C(NCc1ccco1)c1ccc2c(c1)N(CC(O)c1ccccc1)C(=O)CS2 (centres unmarked) [Example 17, N-(furan-2-ylmethyl)-4-(2-hydroxy-2-phenylethyl)-3-oxo-3,4-dihydro-2H-benzo[b-1,4]thiazine-6-carboxamide]
> 10 µM | C[C@H](NC(=O)c1ccc2c(c1)N(Cc1ccccc1F)C(=O)CS2)C1CCCCC1 [Example 18, (S)-N-(1-cyclohexyl-ethyl)-4-(2-fluorobenzyl)-3-oxo-3,4-dihydro-2H-benzo[b-1,4]thiazine-6-carboxamide]
> 10 µM | C[C@@H](NC(=O)c1ccc2c(c1)N(Cc1ccccc1F)C(=O)CS2)C1CCCCC1 [Example 19, (R)-N-(1-cyclohexyl-ethyl)-4-(2-flurobenzyl)-3-oxo-3,4-dihydro-2H-benzo[b-1,4]thiazine-6-carboxamide]
> 10 µM | O=C(NCC1CC1)c1ccc2c(c1)N(Cc1ccccc1F)C(=O)CS2 [Example 20, N-(cyclopropyl-methyl)-4-(2-fluorobenzyl)-3-oxo-3,4-dihydro-2H-benzo[b-1,4]thiazine-6-carboxamide]
1 to 10 µM | O=C(NCc1c(F)cccc1Cl)c1ccc2c(c1)N(Cc1c(F)cccc1Cl)C(=O)CS2 [Example 21, N,4-bis(2-chloro-6-fluorobenzyl)-3-oxo-3,4-dihydro-2H-benzo[b-1,4]thiazine-carboxamide]
> 10 µM | CC1(C)C2CC(CNC(=O)c3ccc4c(c3)N(Cc3ccccc3F)C(=O)CS4)CC1C2 (centres unmarked) [Example 22, N-((6,6-dimethyl-bicyclo[3.1.1]heptan-3-yl)methyl)-4-(2-fluorobenzyl)-3-oxo-3,4-dihydro-2H-benzo[b-1,4]thiazine 6-carboxamide]
> 10 µM | CC(NC(=O)c1ccc2c(c1)N(Cc1ccccc1F)C(=O)CS2)C12C[C@H]3C[C@@H](C1)C[C@@H](C2)C3 (some centres unmarked) [Example 23, N-(1-((3r,5r,7r)-adamantan-1-yl)ethyl)-4-(2-fluorobenzyl)-3-oxo-3,4-dihydro-2H-benzo[b-1,4]thiazine-6-carboxamide]
> 10 µM | O=C(NCC12C[C@H]3C[C@@H](C1)C[C@@H](C2)C3)c1ccc2c(c1)N(Cc1ccccc1F)C(=O)CS2 [Example 24, N-((3r,5r,7r)-adamantan-1-ylmethyl)-4-(2-fluorobenzyl)-3-oxo-3,4-dihydro-2H-benzo[b-1,4]thiazine-6-carboxamide]
> 10 µM | Cc1cccc(CN2C(=O)CSc3ccc(C(=O)NCC4CCCCC4)cc32)c1C [Example 25, N-(cyclohexyl-methyl)-4-(2,3-dimethyl-benzyl)-3-oxo-3,4-dihydro-2H-benzo[b-1,4]thiazine-6-carboxamide]
> 10 µM | O=C(NCc1cccc2ccccc12)c1ccc2c(c1)N(Cc1ccccc1F)C(=O)CS2 [Example 26, 4-(2-fluorobenzyl)-N-(naphthalen-1-ylmethyl)-3-oxo-3,4-dihydro-2H-benzo[b-1,4]thiazine-6-carboxamide]
> 10 µM | O=C(NCc1ccco1)c1ccc2c(c1)N(Cc1cccnc1)C(=O)CS2 [Example 27, N-(furan-2-ylmethyl)-3-oxo-4-(pyridin-3-ylmethyl)-3,4-dihydro-2H-benzo[b-1,4]thiazine-6-carboxamide]
> 10 µM | O=C(NCc1ccco1)c1ccc2c(c1)N(Cc1ccncc1)C(=O)CS2 [Example 28, N-(furan-2-ylmethyl)-3-oxo-4-(pyridin-4-ylmethyl)-3,4-dihydro-2H-benzo[b-1,4]thiazine-6-carboxamide]
> 10 µM | CC(c1ccccc1)N1C(=O)CSc2ccc(C(=O)NCc3ccco3)cc21 (centres unmarked) [Example 29, N-(furan-2-ylmethyl)-3-oxo-4-(1-phenylethyl)-3,4-dihydro-2H-benzo[b-1,4]thiazine-6-carboxamide]
> 10 µM | O=C(NCc1ccco1)c1ccc2c(c1)N(Cc1ccccc1C(F)(F)F)C(=O)CS2 [Example 30, N-(furan-2-ylmethyl)-3-oxo-4-(2-(trifluoro-methyl)benzyl)-3,4-dihydro-2H-benzo[b-1,4]thiazine-6-carboxamide]
1 to 10 µM | O=C(NCc1ccc2ccccc2c1)c1ccc2c(c1)N(Cc1c(F)cccc1Cl)C(=O)CS2 [Example 32, 4-(2-chloro-6-fluorobenzyl)-N-(naphthalen-2-ylmethyl)-3-oxo-3,4-dihydro-2H-benzo[b-1,4]thiazine 6-carboxamide]
> 10 µM | CN(Cc1ccco1)C(=O)c1ccc2c(c1)N(Cc1ccccc1)C(=O)CS2 [Example 33, 4-benzyl-N-(furan-2-ylmethyl)-N-methyl-3-oxo-3,4-dihydro-2H-benzo[b][1,4] thiazine-6-carboxamide]

From patent US20200138827A1, “SMALL MOLECULE MODULATORS OF HUMAN STING” (Curadev Pharma Limited, priority 2017, published 2020)
